# Reference: PubChem BioAssay (NCI)
#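 Results reflect a 48-hour exposure of cells in 96-well plates to compound at five concentrations. Abbreviation: GI50, concentration required for 50% inhibition of growth. At the TGI there is no net growth.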
# Key:
# Assay in all cases: NCI anticancer screen, dose series, 48 h
# ACHN renal = tested on: ACHN renal
# CAKI-1 renal = tested on: CAKI-1 renal
# CCRF-CEM leukemia = tested on: CCRF-CEM leukemia
# DU-145 prostate = tested on: DU-145 prostate
# EKVX NSCLC = tested on: EKVX NSCLC
# HCC-2998 colon = tested on: HCC-2998 colon
# HCT-15 colon = tested on: HCT-15 colon
# HL-60(TB) leukemia = tested on: HL-60(TB) leukemia
# HOP-62 NSCLC = tested on: HOP-62 NSCLC
# HOP-92 NSCLC = tested on: HOP-92 NSCLC
# HS 578T breast = tested on: HS 578T breast
# HT29 colon = tested on: HT29 colon
# IGROV1 ovarian = tested on: IGROV1 ovarian
# K-562 leukemia = tested on: K-562 leukemia
# KM12 colon = tested on: KM12 colon
# LOX IMVI melanoma = tested on: LOX IMVI melanoma
# MALME-3M melanoma = tested on: MALME-3M melanoma
# MCF7 breast = tested on: MCF7 breast
# MDA-MB-231 breast = tested on: MDA-MB-231 breast
# MDA-MB-435 = tested on: MDA-MB-435
# MOLT-4 leukemia = tested on: MOLT-4 leukemia
# NCI-H23 lung = tested on: NCI-H23 lung
# NCI-H460 lung = tested on: NCI-H460 lung
# NCI-H522 lung = tested on: NCI-H522 lung
# NCI/ADR-RES ovarian = tested on: NCI/ADR-RES ovarian
# OVCAR-3 ovarian = tested on: OVCAR-3 ovarian
# OVCAR-4 ovarian = tested on: OVCAR-4 ovarian
# OVCAR-5 ovarian = tested on: OVCAR-5 ovarian
# OVCAR-8 ovarian = tested on: OVCAR-8 ovarian
# PC-3 prostate = tested on: PC-3 prostate
# RPMI-8226 leukemia = tested on: RPMI-8226 leukemia
# RXF 393 renal = tested on: RXF 393 renal
# SF-268 CNS = tested on: SF-268 CNS
# SF-295 CNS = tested on: SF-295 CNS
# SF-539 CNS = tested on: SF-539 CNS
# SK-MEL-2 melanoma = tested on: SK-MEL-2 melanoma
# SK-MEL-5 melanoma = tested on: SK-MEL-5 melanoma
# SK-OV-3 ovarian = tested on: SK-OV-3 ovarian
# SN12C renal = tested on: SN12C renal
# SNB-19 CNS = tested on: SNB-19 CNS
# SW-620 colon = tested on: SW-620 colon
# T-47D breast = tested on: T-47D breast
# TK-10 renal = tested on: TK-10 renal
# U251 CNS = tested on: U251 CNS
# UACC-257 melanoma = tested on: UACC-257 melanoma
# UACC-62 melanoma = tested on: UACC-62 melanoma
# UO-31 renal = tested on: UO-31 renal
smiles,measurement,setting,value
COc1ccc2c3c([nH]c2c1)C(=O)c1nc(C)ccc1C3=O,GI50,ACHN renal,2550 nM
same,TGI,ACHN renal,> 100 µM
same,GI50,CAKI-1 renal,3.82 µM
same,TGI,CAKI-1 renal,> 100 µM
same,GI50,CCRF-CEM leukemia,3.69 µM
same,TGI,CCRF-CEM leukemia,> 100 µM
same,GI50,DU-145 prostate,1700 nM
same,TGI,DU-145 prostate,3.24 µM
same,GI50,EKVX NSCLC,2680 nM
same,TGI,EKVX NSCLC,> 100 µM
same,GI50,HCC-2998 colon,3.81 µM
same,TGI,HCC-2998 colon,> 100 µM
same,GI50,HCT-15 colon,1940 nM
same,TGI,HCT-15 colon,> 100 µM
same,GI50,HL-60(TB) leukemia,2790 nM
same,TGI,HL-60(TB) leukemia,> 100 µM
same,GI50,HOP-62 NSCLC,3.5 µM
same,TGI,HOP-62 NSCLC,> 100 µM
same,GI50,HOP-92 NSCLC,20.7 µM
same,TGI,HOP-92 NSCLC,> 100 µM
same,GI50,HS 578T breast,13.6 µM
same,TGI,HS 578T breast,> 100 µM
same,GI50,HT29 colon,3.88 µM
same,TGI,HT29 colon,> 100 µM
same,GI50,IGROV1 ovarian,326 nM
same,TGI,IGROV1 ovarian,> 100 µM
same,GI50,K-562 leukemia,3.31 µM
same,TGI,K-562 leukemia,> 100 µM
same,GI50,KM12 colon,4.95 µM
same,TGI,KM12 colon,> 100 µM
same,GI50,LOX IMVI melanoma,2240 nM
same,TGI,LOX IMVI melanoma,> 100 µM
same,GI50,MALME-3M melanoma,331 nM
same,TGI,MALME-3M melanoma,1650 nM
same,GI50,MCF7 breast,1980 nM
same,TGI,MCF7 breast,> 100 µM
same,GI50,MDA-MB-231 breast,3.33 µM
same,TGI,MDA-MB-231 breast,> 100 µM
same,GI50,MDA-MB-435,1780 nM
same,TGI,MDA-MB-435,3.19 µM
same,GI50,MOLT-4 leukemia,2630 nM
same,TGI,MOLT-4 leukemia,> 100 µM
same,GI50,NCI-H23 lung,1080 nM
same,TGI,NCI-H23 lung,4.07 µM
same,GI50,NCI-H460 lung,1020 nM
same,TGI,NCI-H460 lung,3.28 µM
same,GI50,NCI-H522 lung,3.83 µM
same,TGI,NCI-H522 lung,> 100 µM
same,GI50,NCI/ADR-RES ovarian,2750 nM
same,TGI,NCI/ADR-RES ovarian,> 100 µM
same,GI50,OVCAR-3 ovarian,1620 nM
same,TGI,OVCAR-3 ovarian,7.05 µM
same,GI50,OVCAR-4 ovarian,2060 nM
same,TGI,OVCAR-4 ovarian,> 100 µM
same,GI50,OVCAR-5 ovarian,4.42 µM
same,TGI,OVCAR-5 ovarian,> 100 µM
same,GI50,OVCAR-8 ovarian,3.35 µM
same,TGI,OVCAR-8 ovarian,> 100 µM
same,GI50,PC-3 prostate,2000 nM
same,TGI,PC-3 prostate,> 100 µM
same,GI50,RPMI-8226 leukemia,2910 nM
same,TGI,RPMI-8226 leukemia,> 100 µM
same,GI50,RXF 393 renal,7.3 µM
same,TGI,RXF 393 renal,> 100 µM
same,GI50,SF-268 CNS,7.8 µM
same,TGI,SF-268 CNS,> 100 µM
same,GI50,SF-295 CNS,1210 nM
same,TGI,SF-295 CNS,2640 nM
same,GI50,SF-539 CNS,3.75 µM
same,TGI,SF-539 CNS,> 100 µM
same,GI50,SK-MEL-2 melanoma,7.04 µM
same,TGI,SK-MEL-2 melanoma,> 100 µM
same,GI50,SK-MEL-5 melanoma,792 nM
same,TGI,SK-MEL-5 melanoma,2200 nM
same,GI50,SK-OV-3 ovarian,> 100 µM
same,TGI,SK-OV-3 ovarian,> 100 µM
same,GI50,SN12C renal,3.24 µM
same,TGI,SN12C renal,> 100 µM
same,GI50,SNB-19 CNS,2610 nM
same,TGI,SNB-19 CNS,> 100 µM
same,GI50,SW-620 colon,3.66 µM
same,TGI,SW-620 colon,> 100 µM
same,GI50,T-47D breast,2650 nM
same,TGI,T-47D breast,> 100 µM
same,GI50,TK-10 renal,> 100 µM
same,TGI,TK-10 renal,> 100 µM
same,GI50,U251 CNS,4.85 µM
same,TGI,U251 CNS,> 100 µM
same,GI50,UACC-257 melanoma,1480 nM
same,TGI,UACC-257 melanoma,5.41 µM
same,GI50,UACC-62 melanoma,1400 nM
same,TGI,UACC-62 melanoma,3.08 µM
same,GI50,UO-31 renal,1030 nM
same,TGI,UO-31 renal,> 100 µM
